{
  "source": "patent US8598115B2",
  "about": "“Cyclic compound and salt thereof” (Astellas Pharma Inc., priority 2008, dated 2013)",
  "test_system": "Aspergillus fumigatus FP1305",
  "assay": "Antifungal activity, broth microdilution method",
  "format": "cell-based",
  "procedure": "Antifungal activities for test fungi shown in Table 15 was determined by a broth microdilution method (Hikaru Kume and Toshikazu Yamazaki, Clinical Microbiology, Vol. 21, No. 5, pp. 573-580, 1994).",
  "note": "Square brackets hold non-standard residues; d marks the D form. Peptide text beside a SMILES is read from it. Orn(N5-OH,N5-Ac) = CC(=O)N(O)CCC[C@H](N)C(=O)O",
  "data": [
    {"smiles": "CC(=O)N([O-])CCC[C@@H]1NC(=O)CNC(=O)CNC(=O)CNC(=O)[C@H](CCCN([O-])C(C)=O)NC(=O)[C@H](CCCN([O-])C(C)=O)NC1=O.[Fe+3]", "note": "[ferrichrome, Ferrichrome] (cyclo(GGG[Orn(N5-OH,N5-Ac)][Orn(N5-OH,N5-Ac)][Orn(N5-OH,N5-Ac)]))", "values": [
      {"measurement": "MEC (minimum effective concentration)", "value": "≥ 50", "unit": "µg/mL"}
    ]}
  ]
}
